Patent publication US12691129B2, “Use of carotenoids in the treatment of senescence-related diseases” (ALGAKTIV, S.L., priority 2019, dated 2026)
Where two headings read alike, the source gives them in different places.

What was measured:
[1] = system: MV-4-11 cells; test: MTT cytotoxicity assay in MV-4-11 cells; assay type: cell-based, Human; conditions: 6 replicates, read-out: IC50 (μM) (mean ± SD)
Description: Human MV-4-11 and PL-21 cell lines were used to evaluate fucoxanthin and amarouciaxanthin A effects in combination with the BCL-2 family inhibitor Navitoclax (ABT-263) and Venetoclax (ABT-199). […] For cytotoxicity determination, MV-4-11 cells and PL-21 cells were plated in 96-well microplates at a density of 10^4 cells/well. After 24 hours, different concentration combinations of Navitoclax or Venetoclax and fucoxanthin or amarouciaxanthin A were added. […] DMSO was used as vehicle control. After this period, 50 μL of SDS 10% were added to the negative control wells (0% viability, 100% mortality). Then, culture media was replaced by fresh media with 10 μL of MTT 5 mg/ml in PBS in each well. […] Next, culture media was removed and 100 μL of extraction buffer (SDS, DSA, acetic acid 2%, pH 4.7) were added to each well. […] Finally, plates were read at 570 nm with the spectrophotometer Multiskan Ascent (MTX Lab systems). The potency of each product was determined through the calculation of IC50 (half maximal inhibitory concentration).

[2] = system: α-SMA in HSC from cirrhotic rats; test: α-SMA expression in primary HSC from cirrhotic rats (qPCR, western blot); assay type: cell-based, rat; conditions: 10 μM, vs vehicle; for inhibition of α-SMA transcription: quantitative PCR
Description: (§1) To evaluate the effect of amarouciaxanthin A on HSC activation, the immortalized human cell line LX2 was used. Additionally, primary HSC were extracted from cirrhotic rats which had been subjected to carbon tetrachloride inhalation. In both cases, cells were cultured for 24 h before adding the compound. After that, either amarouciaxanthin A at 10 μM or the vehicle (DMSO) was added to the culture. Cells were harvested at 24 and 72 h post treatment and were lysed to analyze fibrotic biomarkers. Gene transcription was determined by quantitative PCR at 24 and 72 h and protein expression by western blotting at 72 h. α-smooth muscle actin (α-SMA) was analyzed in rat HSC. Collagen I al (COL1A1), which is the main component of the extracellular matrix, was analyzed in LX2.

[3] = system: COL1A1 in LX2 cells; test: COL1A1 expression in LX2 cells (qPCR, western blot); assay type: cell-based, human; conditions: 10 μM, vs vehicle; for inhibition of COL1A1 transcription: quantitative PCR
Description: as §1

[4] = system: BJ-11 cells; test: Senescence associated β-galactosidase (SA-β-Gal) staining in BJ-11 cells; assay type: cell-based, human
Description: (§2) BJ-11 cell line (human primary skin fibroblasts) was cultured in MEM supplemented with 10% FCS plus 2 mM L-glutamine. All cells were cultured at 37° C. in a humidified 5% CO2-atmosphere and were consistently free of mycoplasma, as evaluated by PCR. All passages were performed between 80 and 90% of confluence and with viability greater than 90%.
In order to evaluate the effects of fucoxanthin on senescence, 10^4 BJ-11 cells were seeded in 24-well plates. Cultures were incubated with different concentrations of palbociclib (Palbo) or doxorubicin (Doxo), as senescence inductors, and fucoxanthin (Fuco), as described in Table 6.
Doxorubicin treatments were performed only for 24 hours. After that, doxorubicin was removed and cells were cultured in complete culture medium during the periods of time indicated below. On the other hand, palbociclib was constantly present in the culture medium and added fresh periodically.
Two different approaches were followed: • Approach 1: Fucoxanthin effects on senescence prevention
After 7 days, β-galactosidase activity was determined.
After that, treatment with fucoxanthin was performed for 7 days. At the end of this period […] activity was determined.
After treatments, SA-β-galactosidase staining was used for the determination of senescence-associated β-galactosidase expression in BJ-11 cells. β-galactosidase staining was performed based on manufacturer's recommendations (9860S, Cell Signaling Technology). Growth media was removed from the cells and the plate was rinsed once with PBS. Then, fixative solution was added to each well and cells were allowed to fix for 10-15 min at room temperature. The plate was rinsed twice with PBS before adding β-Galactosidase Staining Solution to each well. Finally, the plate was incubated at 37° C. for 24 h in a dry incubator (no CO2) for preventing changes in pH, which may affect staining results. The amount of cells positive in β-galactosidase activity (stained in blue) was evaluated by manual stained-cell counting.

[5] = system: Sk-Mel-103 cells; test: MTT cytotoxicity of Navitoclax in Sk-Mel-103 cells after palbociclib/fucoxanthin pretreatment; assay type: cell-based, human; conditions: for IC50: 6 replicates, read-out: IC50 of Navitoclax (μM) (mean ± SD)
Description: as §2, with “Sk-Mel-103” for “BJ-11”, “(human” for “(human primary”, “melanoma)” for “fibroblasts)”, “DMEM-high glucose” for “MEM”, “FCS.” for “FCS plus 2 mM L-glutamine.”
10^6 Sk-Mel-103 cells were seeded in 24-well plates. Cultures were incubated with palbociclib (Palbo), as a senescence inductor; fucoxanthin; or a combination of them, as described in Table 4. After 7 days, cultures were treated with different concentrations of the BCL2 inhibitor Navitoclax. The cytotoxicity of each condition was determined through the calculation of IC50 (half maximal inhibitory concentration) by an MTT assay.
For cytotoxicity determination, cells were plated in 96-well microplates at a density of 10^4 cells/well. After the initial treatments described above, different concentrations of Navitoclax were added. Plates were then incubated for 72 hours at 37° C. and 5% CO2. DMSO was used as vehicle control. After this period, 50 μL of SDS 10% were added to the negative control wells (0% viability, 100% mortality). Then, culture media was replaced by fresh media with 10 μL of MTT 5 mg/ml in PBS in each well. Plates were incubated for 4 hours at 37° C. and 5% CO2. Next, culture media was removed and 100 μL of extraction buffer (SDS, DSA, acetic acid 2%, pH 4.7) were added to each well. After incubating plates for 1 hour at 37° C. and 5% CO2, cultures were homogenized. Finally, plates were read at 570 nm with the spectrophotometer Multiskan Ascent (MTX Lab systems). The potency of each product was determined through the calculation of IC50 (half maximal inhibitory concentration).

[6] = system: PL-21 cells; test: MTT cytotoxicity assay in PL-21 cells; assay type: cell-based, Human; conditions: 72 hours, 6 replicates, read-out: IC50 (μM) (mean ± SD)
Description: Human MV-4-11 and PL-21 cell lines were used to evaluate fucoxanthin and amarouciaxanthin A effects in combination with the BCL-2 family inhibitor Navitoclax (ABT-263) and Venetoclax (ABT-199). Cells were cultured in RPMI media supplemented with 10% FCS at 37° C. in a humidified 5% CO2-atmosphere, and were consistently free of mycoplasma, as evaluated by PCR. All passages were performed between 80 and 90% of confluence and with viability above 90%.
For cytotoxicity determination, MV-4-11 cells and PL-21 cells were plated in 96-well microplates at a density of 10^4 cells/well. After 24 hours, different concentration combinations of Navitoclax or Venetoclax and fucoxanthin or amarouciaxanthin A were added. Plates were incubated for 72 hours at 37° C. and 5% CO2. DMSO was used as vehicle control. After this period, 50 μL of SDS 10% were added to the negative control wells (0% viability, 100% mortality). Then, culture media was replaced by fresh media with 10 μL of MTT 5 mg/ml in PBS in each well. Plates were incubated for 4 hours at 37° C. and 5% CO2. Next, culture media was removed and 100 μL of extraction buffer (SDS, DSA, acetic acid 2%, pH 4.7) were added to each well. […] Finally, plates were read at 570 nm with the spectrophotometer Multiskan Ascent (MTX Lab systems). The potency of each product was determined through the calculation of IC50 (half maximal inhibitory concentration).

[7] = system: IL-1β, IL-6 and IL-8 secretion by SK-Mel-103 cells; test: Secreted interleukins (ELISA) in senescent SK-Mel-103 cells; assay type: cell-based, human; conditions: fucoxanthin 4 μM, p value<0.01
Description: as §2, with “Sk-Mel-103” for “BJ-11”, “(human” for “(human primary”, “melanoma)” for “fibroblasts)”, “DMEM-high glucose” for “MEM”, “FCS.” for “FCS plus 2 mM L-glutamine.”
10^6 Sk-Mel-103 cells were seeded in 24-well plates. Cultures were incubated with palbociclib or doxorubicin, as senescence inductors; fucoxanthin; or a combination of them, as described in Table 9. After treatments, cells and supernatants were collected by centrifugation and stored at −20° C.
Secretion of IL-1β, IL-6 and IL-8 was quantified in the supernatants by commercial ELISA kits (DY201, DY206, DY208, R&D Systems) following manufacturer's instructions. Obtained values were normalized by total cell protein content in each well at the end of the experiment, quantified by Bradford assay (B6916, Sigma-Aldrich). A second normalization was performed by dividing the secreted interleukin after fucoxanthin incubations by its corresponding control of senescent cells.

[8] = senescence induced with doxorubicin 125 nM, vs senescent cells (FIG. 2)
[9] = senescence induced with palbociclib 1 μM, vs senescent cells (FIG. 1)

## CC1=CC(=O)CC(C)(C)[C@@]1(O)CC(=O)/C(C)=C/C=C/C(C)=C/C=C/C=C(C)/C=C/C=C(\C)C=C=C1C(C)(C)C[C@H](O)C[C@@]1(C)O [Amarouciaxanthin A, amarouciaxanthin A]
[1]; 72 hours
  IC50: 1.45 ± 0.27 µM
[2]; 24 h
  inhibition of α-SMA transcription: around 80%
[2]; 72 h
  inhibition of α-SMA transcription: around 80%
[2]; 72 h, western blotting
  reduction of α-SMA expression at the protein level: 95%
[3]; 24 h
  inhibition of COL1A1 transcription: around 50%
[3]; 72 h
  inhibition of COL1A1 transcription: around 80%
[3]; 72 h, western blot
  reduction of collagen expression (protein): around 95%

## COc1cccc2c1C(=O)c1c(O)c3c(c(O)c1C2=O)C[C@@](O)(C(=O)CO)C[C@@H]3O[C@H]1C[C@H](N)[C@H](O)[C@H](C)O1 [Doxorubicin, doxorubicin, reference compound]
[4]; Approach 1 (prevention), senescent cells: doxorubicin 25 nM (24 hours) alone, 7 days
  Percentage of cells positive in β-galactosidase activity: >80%
[4]; Approach 2 (reversion), senescent cells: doxorubicin 25 nM alone
  Percentage of cells positive in β-galactosidase activity: >80%

## CC1(C)CCC(c2ccc(Cl)cc2)=C(CN2CCN(c3ccc(C(=O)NS(=O)(=O)c4ccc(N[C@H](CCN5CCOCC5)CSc5ccccc5)c(S(=O)(=O)C(F)(F)F)c4)cc3)CC2)C1 [Navitoclax, navitoclax]
[1]; 72 hours
  IC50: 0.14 ± 0.01 µM
[5]; Sk-Mel-103 control cells (no pretreatment)
  IC50: 8.02 ± 1.31 µM
[5]; Sk-Mel-103 control cells + fucoxanthin 4 μM pretreatment 7 days
  IC50: 4.79 ± 0.911 µM
[5]; Sk-Mel-103 senescent cells (palbociclib 1 μM) + fucoxanthin 4 μM pretreatment 7 days
  IC50: 0.055 ± 0.005 µM
[5]; Sk-Mel-103 senescent cells (palbociclib 1 μM, 7 days)
  IC50: 0.136 ± 0.012 µM
[6]
  IC50: 1.22 ± 0.12 µM

## CC(=O)c1c(C)c2cnc(Nc3ccc(N4CCNCC4)cn3)nc2n(C2CCCC2)c1=O [Palbociclib, palbociclib, reference compound]
[4]; Approach 1 (prevention), senescent cells: palbociclib 1 μM alone, 7 days
  Percentage of cells positive in β-galactosidase activity: >98%
[4]; Approach 2 (reversion), senescent cells: palbociclib 1 μM alone
  Percentage of cells positive in β-galactosidase activity: >95%

## CC1(C)CCC(c2ccc(Cl)cc2)=C(CN2CCN(c3ccc(C(=O)NS(=O)(=O)c4ccc(NCC5CCOCC5)c([N+](=O)[O-])c4)c(Oc4cnc5[nH]ccc5c4)c3)CC2)C1 [Venetoclax, venetoclax, reference compound]
[1]; Homo sapiens, MV4-11, 72 hours
  IC50: 0.0048 µM

## fucoxanthin
[1]; 72 hours
  IC50: 1.34 ± 0.07 µM
[5]; Sk-Mel-103, fucoxanthin 4 μM pretreatment 7 days, summary of Table 5
  effect of fucoxanthin pretreatment on senolytic activity of Navitoclax: increased the senolytic activity of Navitoclax
[6]
  IC50: 10.5 ± 1.55 µM
[7]; [8]
  secretion of IL-1β: significantly decreased
  secretion of IL-6: significantly decreased
  secretion of IL-8: significantly decreased
[7]; [9]
  secretion of IL-1β: significantly decreased
  secretion of IL-6: significantly decreased
  secretion of IL-8: significantly decreased
[4]; Approach 1 (prevention), fucoxanthin 10 μM simultaneously with doxorubicin 25 nM, 7 days
  Percentage of cells positive in β-galactosidase activity: <5%
[4]; Approach 1 (prevention), fucoxanthin 10 μM simultaneously with palbociclib 1 μM, 7 days
  Percentage of cells positive in β-galactosidase activity: <5%
[4]; Approach 2 (reversion), doxorubicin 25 nM, 7 days, then fucoxanthin 10 μM for 7 days
  Percentage of cells positive in β-galactosidase activity: <5%
[4]; Approach 2 (reversion), palbociclib 1 μM for 7 days, then fucoxanthin 10 μM for 7 days
  Percentage of cells positive in β-galactosidase activity: <5%
[4]; BJ-11, doxorubicin or palbociclib induced senescence, prevention and reversion, summary of Tables 7 and 8
  percentage of senescent cells positive in β-galactosidase activity after treatment (in words): reduced
